{"source": "patent US20060281726A1", "about": "“Piperidine derivatives for the treatment of chemokine or h1 mediated disease state” (priority 2003, published 2006)"}
{"biological_target": "T1, human H1 receptor (Homo sapiens, UniProt P35367)", "T1 construct": "purchased Euroscreen SA, Brussels, Belgium ES-390-M; host or cells: CHO-K1", "T1 sequence (P35367 whole entry)": "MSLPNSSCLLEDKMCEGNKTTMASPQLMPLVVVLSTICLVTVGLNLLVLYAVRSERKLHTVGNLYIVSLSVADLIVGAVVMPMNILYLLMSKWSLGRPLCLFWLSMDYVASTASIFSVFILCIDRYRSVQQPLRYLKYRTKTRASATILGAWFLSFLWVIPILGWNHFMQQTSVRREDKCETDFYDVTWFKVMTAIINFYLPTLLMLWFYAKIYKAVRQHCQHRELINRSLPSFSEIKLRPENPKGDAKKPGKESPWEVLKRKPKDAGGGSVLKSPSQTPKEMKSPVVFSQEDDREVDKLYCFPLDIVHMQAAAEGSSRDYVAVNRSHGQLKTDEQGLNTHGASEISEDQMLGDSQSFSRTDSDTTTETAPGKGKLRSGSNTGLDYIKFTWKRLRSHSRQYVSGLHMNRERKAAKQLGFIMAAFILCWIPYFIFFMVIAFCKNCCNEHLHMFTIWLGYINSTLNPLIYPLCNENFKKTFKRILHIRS", "assay": "Histamine H1 receptor binding, competition displacement of [3H]-pyrilamine", "conditions": "displacement of 1 nM [3H]-pyrilamine; membranes from recombinant CHO-K1 cells expressing the human H1 receptor; 1 hour at room temperature; read-out: H1 pKi/[1328_S] (converted)", "procedure": "Histamine H1 receptor binding activity of compounds of the invention was assessed by competition displacement of 1 nM [3H]-pyrilamine (Amersham, Bucks, Product code TRK 608, specific activity 30 Ci/mmol) to 2 μg membranes prepared from recombinant CHO-K1 cells expressing the human H1 receptor (Euroscreen SA, Brussels, Belgium, product code ES-390-M) in assay buffer (50 mM Tris pH 7.4 containing 2 mM MgCl2, 250 mM sucrose and 100 mM NaCl) for 1 hour at room temperature.", "units": {"Ki": "nM"}}
{"smiles": "CS(=O)(=O)c1cc(C(=O)N2CCC(CN3CCC(Oc4ccc(Cl)c(Cl)c4)CC3)CC2)ccc1O", "note": "[Example 19, 4-[[4-(3,4-dichlorophenoxy)-1-piperidinyl]methyl]-1-[4-hydroxy-3-(methylsulfonyl)benzoyl]-piperidine]", "Ki": 31.6}
{"smiles": "O=C(O)c1ccccc1C(=O)N1CCC(CN2CCC(Oc3ccc(Cl)c(Cl)c3)CC2)CC1", "note": "[Example 1, 2-[[4-[[4-(3,4-dichlorophenoxy)-1-piperidinyl]methyl]-1-piperidinyl]carbonyl]-benzoic acid]", "Ki": 316}
{"smiles": "O=C(O)Cc1ccccc1C(=O)N1CCC(CN2CCC(Oc3ccc(Cl)c(Cl)c3)CC2)CC1", "note": "[Example 12, 2-[[4-[[4-(3,4-dichlorophenoxy)-1-piperidinyl]methyl]-1-piperidinyl]carbonyl]-benzeneacetic acid]", "Ki": 251}
{"smiles": "Cc1c(Cl)ccc(OC2CCN(CC3CCN(C(=O)c4ccccc4C(=O)O)CC3)CC2)c1Cl", "note": "[Example 2, 2-[[4-[[4-(2,4-Dichloro-3-methylphenoxy)-1-piperidinyl]methyl]-1-piperidinyl]carbonyl]-benzoic acid]", "Ki": 63.1}
{"smiles": "Cc1c(OC2CCN(CC3CCN(C(=O)c4ccccc4C(=O)O)CC3)CC2)ccc(Cl)c1Cl", "note": "[Example 3, 2-[[4-[[4-(3,4-Dichloro-2-methylphenoxy)-1-piperidinyl]methyl]-1-piperidinyl]carbonyl]-benzoic acid]", "Ki": 200}
